US20100216779A1 (GLAXOSMITHKLINE LLC, priority 2007, published 2010)

Experiments:
[1] = tested on: LISN cell (mouse 3T3 fibroblasts transduced with human IGF-1R) tumors; assay: In vivo efficacy, mice bearing LISN cell tumors; settings: LISN
Experimental: E. In Vivo Efficacy—Mouse Models
The efficacy of the compounds of Examples 57 and 58 were assessed together in an in vivo efficacy experiment performed on mice bearing LISN cell (mouse 3T3 fibroblasts transduced with human IGF-1R) tumors. Fifty six female nude mice bearing subcutaneous LISN cell tumors were measured for tumor size and body weight and block randomized into seven groups of eight mice with an equal average tumor volume of approximately 200 mm3. Mice were dosed with either vehicle (20% SBE pH3.5), Example 57 or Example 58. The dosing schedules for each compound were based on previous experiments with the compounds and doses chosen to give the highest tumor growth inhibition and a dose response. Example 58 was dosed at 30, 100 and 300 mg/kg QD for 21 days while Example 57 was dosed at 30 mg/kg QD for 21 days, 15 mg/kg BID for 21 days and 30 mg/kg QDx3 days/week for 3 weeks.
The tumors on mice being treated with vehicle grew with the expected exponential growth throughout the 21 day study. […] The lower dose of 30 mg/kg of Example 58 achieved 28% tumor growth inhibition.
The efficacy of the compounds of Examples 237 and 219 were assessed together in an in vivo efficacy experiment performed on mice bearing LISN cell (mouse 3T3 fibroblasts transduced with human IGF-1R) tumors. Sixty four female nude mice bearing subcutaneous LISN cell tumors were measured for tumor size and body weight and block randomized into eight groups of eight mice with an equal average tumor volume of approximately 362 mm^3. Mice were dosed with either vehicle (20% SBE pH3.5), Example 237 or Example 219. The dosing schedules for each compound were based on previous experiments with the compounds and doses chosen to give the highest tumor growth inhibition and a dose response. Example 237 was administered at 30 and 60 mg/kg QD for 21 days and 30 mg/kg BID for 21 days while Example 219 was administered at 50 and 100 mg/kg QD for 21 days, 25 and 50 mg/kg BID for 21 days.
The tumors on mice being treated with vehicle grew with the expected exponential growth throughout the 21 day study. […] The lower dose of 30 mg/kg QD of Example 237 achieved 15% tumor growth inhibition at day 21 (note: 2 animals were euthanized prior to the last measurement). […] This recovered to 3% by the end of dosing and fully recovered after dosing was concluded. […] This recovered fully within 4 days after the completion of dosing.

[2] = tested on: BT474 cell tumors (breast carcinoma cell line); assay: In vivo efficacy, BT474 tumor bearing mice; parameters: species or system mouse
Experimental: In addition to the LISN xenograft efficacy studies, Example 57 has also been assessed in vivo in two other mouse models of cancer, including: Colo-205 tumor bearing mice (colon carcinoma cell line) and BT474 tumor bearing mice (breast carcinoma cell line). Forty female nude mice bearing Colo-205 tumors (average tumor size of 200 mm3) were randomized into five groups of eight mice and dosed with either vehicle (20% SBE pH3.5) or Example 57 at 100, 30, 10 mg/kg QD or 30 mg/kg BID for 21 days. The groups of mice dosed with the higher doses of Example 57 (100 mg/kg QD and 30 mg/kg BID) lost greater than 20% body weight within 10 days of dosing so were taken off the study and allowed to recover. […] The higher doses of 100 mg/kg QDx10 and 30 mg/kg BIDx10 achieved 72 and 49% tumor growth inhibition respectively.
Due to the body weight loss seen with the higher doses in the Colo-205 xenograft efficacy study, the dosing regime was altered for the follow up BT474 study. Forty female nude mice bearing subcutaneous BT474 cell tumors (average tumor size of 200 mm3) were randomized into five groups each containing eight mice and dosed with either vehicle (20% SBE pH3.5) or Example 57 at 60, 30 or 15 mg/kg QD or 15 mg/kg BID for 21 days. Note the maximal QD dose was reduced from 100 mg/kg to 60 mg/kg and the BID dose reduced from 30 mg/kg to 15 mg/kg. In addition to these changes the mice in this study were given weekend holidays from dosing.

COc1cc(N2CCC(N3CCN(CCF)CC3)CC2)ccc1Nc1nccc(-c2c(-c3cccc(C(=O)Nc4c(F)cccc4F)c3)nc3ccccn23)n1 [Example 57, N-(2,6-difluorophenyl)-3-[3-(2-{[4-{4-[4-(2-fluoroethyl)-1-piperazinyl]-1-piperidinyl}-2-(methyloxy)phenyl]amino}-4-pyrimidinyl)imidazo[1,2-a]pyridin-2-yl]benzamide]
tumor growth inhibition ([1]; 15 mg/kg BID for 21 days): 50%
body weight loss ([1]; 30 mg/kg QD and 15 mg/kg BID treated groups): no body weight loss
tumor growth inhibition ([1]; 30 mg/kg QD for 21 days): 34%
tumor growth inhibition ([1]; 30 mg/kg QDx3 days/week for 3 weeks): 69%
body weight loss ([1]; 30 mg/kg QDx3 days/week for 3 weeks, over the three consecutive days of dosing, recovered in between doses): significant body weight loss
tumor growth inhibition ([2]; BT474, 15 mg/kg BIDx21, weekend holidays from dosing): 54%
tumor growth inhibition ([2]; BT474, 30 mg/kg QDx21, weekend holidays from dosing): 37%
tumor growth inhibition ([2]; BT474, 60 mg/kg QDx21, weekend holidays from dosing): 37%
body weight loss ([2]; BT474, all groups): no body weight loss
tumor growth inhibition ([2]; BT474, third QDx21 dose group (15 mg/kg QD per study design), weekend holidays from dosing): 16%
